This note sets out measurements from US20120021973A1, “Peptides for Treatment of Obesity” (priority 2008, published 2012).

This assay deals with ad libitum fed rat. The assay is described as follows: Assay (I) efficacy testing on appetite, ad libitum fed rat model. Type of assay: in vivo. Here is the method: Assay (I)— Experimental Protocol for Efficacy Testing on Appetite with MC4 Analogues, Using an Ad Libitum Fed Rat Model.
TAC:SPRD @mol rats or Wistar rats from M&B Breeding and Research Centre A/S, Denmark are used for the experiments. The rats have a body weight 200-250 g at the start of experiment. The rats arrive at least 10-14 days before start of experiment with a body weight of 180-200 g. Each dose of compound is tested in a group of 8 rats. A vehicle group of 8 rats is included in each set of testing.
When the animals arrive they are housed individually in a reversed light/dark phase (lights off 7:30 am, lights on 7:30 pm), meaning that lights are off during daytime and on during nighttime. Since rats normally initiate food intake when light is removed, and eat the major part of their daily food intake during the night, this set up results in an alteration of the initiation time for food intake to 7:30 am, when lights are switched off. During the acclimatization period of 10-14 days, the rats have free access to food and water. During this period the animals are handled at least 3 times. The experiment is conducted in the rats' home cages. Immediately before dosing the rats are randomised to the various treatment groups (n 8) by body weight. They are dosed according to body weight at between 7:00 am and 7:45 am, with a 1-3 mg/kg solution administered intraperitoneally (ip), orally (po) or subcutaneously (sc). The time of dosing is recorded for each group. After dosing, the rats are returned to their home cages, where they then have access to food and water. The food consumption is recorded individually every hour for 7 hours, and then after 24 h and sometimes 48 h. At the end of the experimental session, the animals are euthanised.
The individual data are recorded in Microsoft excel sheets. Outliers are excluded after applying the Grubbs statistical evaluation test for outliers, and the result is presented graphically using the GraphPad Prism program.

*1 amine or outer side, *2 acyl side, *3 side chain or, on linkers, in order; H or OH if unused. Where a SMILES comes first, the peptide text is derived from it. Bridges are numbered along the chain shown (N, C = ends). [ ]: non-standard residue; d: D form. The star is where a group is joined. Palmitoyl(16-(5-tetrazolyl)) = O=C(CCCCCCCCCCCCCCCc1nnn[nH]1)*; Lys(CH2CO2H)2 = N[C@@H](CCCCN(CC(=O)O)CC(=O)O)C(=O)O; X1 = O=C(O)CN(CC(=O)O)C[C@H](N[*:1])C(=O)[*:2]; C20 diacid = O=C(O)CCCCCCCCCCCCCCCCCCC(=O)*; Hyp = O=C(O)[C@@H]1C[C@@H](O)CN1; NTA = O=C(O)CN(CC(=O)O)CC(=O)*; Nle = CCCC[C@H](N)C(=O)O; Dap = NC[C@H](N)C(=O)O; AEEA = NCCOCCOCC(=O)O; βAla = NCCC(=O)O

Turning to `CCCC[C@H](NC(=O)[C@H](CNC(=O)CN(CC(=O)O)CC(=O)O)NC(=O)[C@H](CO)NC(=O)[C@H](CCC(N)=O)NC(=O)[C@H](CO)NC(=O)CNC(=O)COCCOCCNC(=O)CCCCCCCCCCCCCCCc1nnn[nH]1)C(=O)N[C@H]1CCC(=O)NCCCC[C@@H](C(N)=O)NC(=O)[C@H](Cc2c[nH]c3ccccc23)NC(=O)[C@H](CCCNC(=N)N)NC(=O)[C@@H](Cc2ccccc2)NC(=O)[C@@H]2C[C@@H](O)CN2C1=O` [Example 4, (2-{2-[16-(Tetrazol-5-yl)hexadecanoylamino]ethoxy}ethoxy)acetyl-Gly-Ser-Gln-Ser-Dap(BCMA)-Nle-c[Glu-Hyp-D-Phe-Arg-Trp-Lys]-NH2] ({Palmitoyl(16-(5-tetrazolyl))-AEEA}-GSQS[Dap](NTA)[Nle]E[Hyp][dF]RWK-NH2; lactam 7-12), under “3 mg/kg”, the “Food consumption (% of vehicle) 24 h” value is recorded as 52 % of vehicle and the “Food consumption (% of vehicle) 48 h” value is on record as 69 % of vehicle.

`CCCC[C@H](NC(=O)[C@H](CN(CC(=O)O)CC(=O)O)NC(=O)[C@H](Cc1c[nH]cn1)NC(=O)[C@H](CCC(N)=O)NC(=O)[C@H](CO)NC(=O)CNC(=O)COCCOCCNC(=O)CCCCCCCCCCCCCCCc1nnn[nH]1)C(=O)N[C@H]1CCC(=O)NCCCC[C@@H](C(N)=O)NC(=O)[C@H](Cc2c[nH]c3ccccc23)NC(=O)[C@H](CCCNC(=N)N)NC(=O)[C@@H](Cc2ccccc2)NC(=O)[C@@H]2C[C@@H](O)CN2C1=O` [Example 6, (2-{2-[16-(Tetrazol-5-yl)hexadecanoylamino]ethoxy}ethoxy)acetyl-Gly-Ser-Gln-His-Dap(biscarboxymethyl)-Nle-c[Glu-Hyp-D-Phe-Arg-Trp-Lys]-NH2] ({Palmitoyl(16-(5-tetrazolyl))-AEEA}-GSQH[X1][Nle]E[Hyp][dF]RWK-NH2; lactam 7-12): where the note is “3 mg/kg”, the “Food consumption (% of vehicle) 24 h” value is reported as 58 % of vehicle and the “Food consumption (% of vehicle) 48 h” value is 69 % of vehicle.

For the compound `CCCC[C@H](NC(=O)[C@H](CNC(=O)CN(CC(=O)O)CC(=O)O)NC(=O)[C@H](Cc1c[nH]cn1)NC(=O)[C@H](CCC(N)=O)NC(=O)[C@H](CO)NC(=O)CNC(=O)COCCOCCNC(=O)CCCCCCCCCCCCCCCc1nnn[nH]1)C(=O)N[C@H]1CCC(=O)NCCCC[C@@H](C(N)=O)NC(=O)[C@H](Cc2c[nH]c3ccccc23)NC(=O)[C@H](CCCNC(=N)N)NC(=O)[C@@H](Cc2ccccc2)NC(=O)[C@@H]2C[C@@H](O)CN2C1=O` [Example 9, (2-{2-[16-(Tetrazol-5-yl)hexadecanoylamino]ethoxy}ethoxy)acetyl-Gly-Ser-Gln-His-Dap(BCMA)-Nle-c[Glu-Hyp-D-Phe-Arg-Trp-Lys]-NH2] ({Palmitoyl(16-(5-tetrazolyl))-AEEA}-GSQH[Dap](NTA)[Nle]E[Hyp][dF]RWK-NH2; lactam 7-12), where the note is “3 mg/kg”, the “Food consumption (% of vehicle) 24 h” value was 47 % of vehicle and the “Food consumption (% of vehicle) 48 h” value is 57 % of vehicle.

Take `CCCC[C@H](NC(=O)[C@H](CCCCNC(=O)CN(CC(=O)O)CC(=O)O)NC(=O)[C@H](CO)NC(=O)[C@H](CCC(N)=O)NC(=O)[C@H](CO)NC(=O)CNC(=O)COCCOCCNC(=O)CCCCCCCCCCCCCCCc1nnn[nH]1)C(=O)N[C@H]1CCC(=O)NCCCC[C@@H](C(N)=O)NC(=O)[C@H](Cc2c[nH]c3ccccc23)NC(=O)[C@H](CCCNC(=N)N)NC(=O)[C@@H](Cc2ccccc2)NC(=O)[C@@H]2C[C@@H](O)CN2C1=O` [Example 15, (2-{2-[16-(Tetrazol-5-yl)hexadecanoylamino]ethoxy}ethoxy)acetyl-Gly-Ser-Gln-Ser-Lys(BCMA)-Nle-c[Glu-Hyp-D-Phe-Arg-Trp-Lys]-NH2] ({Palmitoyl(16-(5-tetrazolyl))-AEEA}-GSQSK(NTA)[Nle]E[Hyp][dF]RWK-NH2; lactam 7-12): where the note is “1 mg/kg”, the “Food consumption (% of vehicle) 24 h” value is reported as 74 % of vehicle and the “Food consumption (% of vehicle) 48 h” value was 85 % of vehicle.

Turning to `CCCC[C@H](NC(=O)CCNC(=O)[C@H](CCCCN(CC(=O)O)CC(=O)O)NC(=O)[C@H](Cc1c[nH]cn1)NC(=O)[C@H](CCC(N)=O)NC(=O)[C@H](CO)NC(=O)[C@H](CO)NC(=O)[C@H](CCC(N)=O)NC(=O)[C@@H](CO)NC(=O)CNC(=O)COCCOCCNC(=O)COCCOCCNC(=O)CCCCCCCCCCCCCCCCCCC(=O)O)C(=O)N[C@H]1CCC(=O)NCCCC[C@@H](C(N)=O)NC(=O)[C@H](Cc2c[nH]c3ccccc23)NC(=O)[C@H](CCCNC(=N)N)NC(=O)[C@@H](Cc2ccccc2)NC(=O)[C@@H]2C[C@@H](O)CN2C1=O` [Example 22, {2-[2-(2-{2-[2-(19-Carboxynonadecanoylamino)ethoxy]ethoxy}acetylamino)ethoxy]ethoxy}acetyl-Gly-D-Ser-Gln-Ser-Ser-Gln-His-Lys(biscarboxymethyl)-β-Ala-Nle-c[Glu-Hyp-D-Phe-Arg-Trp-Lys]-NH2] ({C20 diacid-AEEA-AEEA}-G[dS]QSSQH[Lys(CH2CO2H)2][βAla][Nle]E[Hyp][dF]RWK-NH2; lactam 11-16), under “1 mg/kg”, the “Food consumption (% of vehicle) 24 h” value is 59 % of vehicle and the “Food consumption (% of vehicle) 48 h” value is given as 76 % of vehicle.
